Source: patent publication US20210253642A1, “CALPAIN MODULATORS AND THERAPEUTIC USES THEREOF BACKGROUND” (Blade Therapeutics, Inc., priority 2018, published 2021)

Assays:
Type in all cases: biochemical
Human Calpain 2/NS1 = target: T1, Human Calpain 2/NS1 (Homo sapiens, UniProt P17655); assay: Calpain continuous fluorescence (FRET) inhibition assay; conditions: Column B; SensoLyte 520 FRET substrate, pH 7.5, 25C
T1 sequence (P17655 1-700): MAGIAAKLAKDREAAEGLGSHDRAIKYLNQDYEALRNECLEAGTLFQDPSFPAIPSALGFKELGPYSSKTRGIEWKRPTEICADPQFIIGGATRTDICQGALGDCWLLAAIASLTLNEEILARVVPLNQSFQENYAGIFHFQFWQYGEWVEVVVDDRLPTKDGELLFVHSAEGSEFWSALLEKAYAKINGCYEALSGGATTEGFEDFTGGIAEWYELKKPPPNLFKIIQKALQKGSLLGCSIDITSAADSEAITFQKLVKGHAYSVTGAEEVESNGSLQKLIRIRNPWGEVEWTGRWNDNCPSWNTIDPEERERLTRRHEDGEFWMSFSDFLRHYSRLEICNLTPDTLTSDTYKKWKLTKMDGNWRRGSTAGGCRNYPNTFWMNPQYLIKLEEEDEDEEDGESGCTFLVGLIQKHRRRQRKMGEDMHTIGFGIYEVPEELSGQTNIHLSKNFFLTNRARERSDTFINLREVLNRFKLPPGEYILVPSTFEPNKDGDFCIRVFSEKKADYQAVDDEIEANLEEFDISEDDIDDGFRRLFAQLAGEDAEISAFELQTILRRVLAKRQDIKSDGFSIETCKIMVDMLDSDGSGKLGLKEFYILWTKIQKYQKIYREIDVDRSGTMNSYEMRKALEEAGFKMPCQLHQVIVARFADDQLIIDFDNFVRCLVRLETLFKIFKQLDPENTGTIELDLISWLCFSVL
T1 sequence (P04632 1-268 partner): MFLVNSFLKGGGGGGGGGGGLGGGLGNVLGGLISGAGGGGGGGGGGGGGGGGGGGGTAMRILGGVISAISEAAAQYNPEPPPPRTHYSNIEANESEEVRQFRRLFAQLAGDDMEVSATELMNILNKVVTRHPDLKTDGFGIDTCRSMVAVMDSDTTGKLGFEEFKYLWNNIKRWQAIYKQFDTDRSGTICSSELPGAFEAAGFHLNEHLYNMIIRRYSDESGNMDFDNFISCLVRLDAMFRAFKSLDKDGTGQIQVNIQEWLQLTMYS
Method: (§1) Calpain 1, 2, and 9 activity and inhibition thereof was assessed by means of a continuous fluorescence assay. The SensoLyte 520 Calpain substrate (Anaspec Inc.) was optimized for detecting calpain activity. This substrate contains an internally quenched 5-FAM/QXLTM 520 FRET pair. Calpains 1, 2, and 9 cleave the FRET substrate into two separate fragments resulting in an increase of 5-FAM fluorescence that is proportional to calpain activity
(§2) Assays were typically setup in black 384-well plates using automated liquid handling as follows. Calpain assay base buffer typically contains 50 mM Tris, pH 7.5, 100 mM NaCl and 1 mM DTT. Inhibitors were serially diluted in DMSO and used to setup 2× mixtures with calpains in the aforementioned buffer. After incubation at ambient temperature (25C), the reaction was initiated by adding a 2× mix of the fluorescent peptide substrate and CaCl2) (required for in-situ calpain activation) in the same buffer. Reaction progress curve data were typically collected for 10 min using excitation/emission wavelengths of 490 nm/520 nm on SpectraMax i3x or the FLIPR-Tetra plate readers (Molecular Devices Inc.). Reaction rates were calculated from progress curve slopes typically over 1-5 min. Dose response curves (rate vs. log inhibitor concentration) were typically fit to a 4-parameter logistic function to extract IC50 values.

Human Calpain 1/NS1 = target: T2, Human Calpain 1/NS1 (Homo sapiens, UniProt P07384); assay: as above; conditions: Column A; SensoLyte 520 FRET substrate, pH 7.5, 25C
T2 sequence (P07384 1-714): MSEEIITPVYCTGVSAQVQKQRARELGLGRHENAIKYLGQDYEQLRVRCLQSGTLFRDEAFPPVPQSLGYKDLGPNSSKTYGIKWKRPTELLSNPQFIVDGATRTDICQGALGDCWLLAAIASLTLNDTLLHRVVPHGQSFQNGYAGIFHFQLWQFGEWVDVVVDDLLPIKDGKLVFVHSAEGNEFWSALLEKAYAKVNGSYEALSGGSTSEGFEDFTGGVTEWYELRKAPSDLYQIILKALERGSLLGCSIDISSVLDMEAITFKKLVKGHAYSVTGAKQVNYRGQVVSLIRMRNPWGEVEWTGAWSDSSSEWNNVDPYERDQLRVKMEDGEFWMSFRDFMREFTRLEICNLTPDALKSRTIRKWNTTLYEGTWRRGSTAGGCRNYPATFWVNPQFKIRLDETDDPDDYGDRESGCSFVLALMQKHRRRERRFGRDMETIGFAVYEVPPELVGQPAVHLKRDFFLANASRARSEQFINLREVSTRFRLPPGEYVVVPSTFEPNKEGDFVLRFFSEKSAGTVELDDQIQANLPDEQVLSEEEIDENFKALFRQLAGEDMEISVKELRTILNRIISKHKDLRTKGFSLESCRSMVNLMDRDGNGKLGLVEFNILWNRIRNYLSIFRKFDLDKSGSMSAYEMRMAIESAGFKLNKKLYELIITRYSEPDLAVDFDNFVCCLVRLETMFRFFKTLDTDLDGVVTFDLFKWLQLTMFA
T2 sequence (P04632 1-268 partner): T1 sequence (P04632 1-268 partner)
Method: as §1, §2

Human Calpain 9/NS1 = target: T3, Human Calpain 9/NS1 (Homo sapiens, UniProt O14815); assay: as above; conditions: Column C; SensoLyte 520 FRET substrate, pH 7.5, 25C
T3 sequence (O14815 1-690): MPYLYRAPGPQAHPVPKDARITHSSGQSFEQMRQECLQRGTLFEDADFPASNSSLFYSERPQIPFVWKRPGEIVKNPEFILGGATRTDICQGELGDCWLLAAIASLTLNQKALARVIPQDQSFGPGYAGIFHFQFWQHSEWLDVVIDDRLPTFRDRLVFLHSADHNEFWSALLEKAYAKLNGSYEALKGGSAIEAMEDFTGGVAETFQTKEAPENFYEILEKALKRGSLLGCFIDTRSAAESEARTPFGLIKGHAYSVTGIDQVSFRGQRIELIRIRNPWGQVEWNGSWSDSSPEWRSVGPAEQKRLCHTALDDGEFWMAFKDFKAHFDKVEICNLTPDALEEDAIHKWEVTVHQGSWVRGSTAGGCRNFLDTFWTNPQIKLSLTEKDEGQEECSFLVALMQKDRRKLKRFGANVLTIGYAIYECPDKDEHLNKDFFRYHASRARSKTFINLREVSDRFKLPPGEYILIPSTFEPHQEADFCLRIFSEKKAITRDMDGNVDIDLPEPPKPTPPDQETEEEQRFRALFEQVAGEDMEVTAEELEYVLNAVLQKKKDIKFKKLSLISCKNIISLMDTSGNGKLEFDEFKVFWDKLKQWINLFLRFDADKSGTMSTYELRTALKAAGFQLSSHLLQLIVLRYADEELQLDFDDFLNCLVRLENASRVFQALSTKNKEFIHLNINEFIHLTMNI
T3 sequence (P04632 1-268 partner): T1 sequence (P04632 1-268 partner)
Method: as §1, §2

Human Cathepsin L = target: T4, Human Cathepsin L (Homo sapiens, UniProt P07711); assay: Cathepsin continuous fluorescence inhibition assay; conditions: Column G; enzyme 0.025 nM, substrate 1 uM, pH 6.0, 30 minutes pre-incubation with inhibitor
T4 construct: purchased
Method: (§3) Cathepsin activity and inhibition thereof was assessed by means of a continuous fluorescence assay. All assays were run in 384 well format and utilized peptide substrates that liberate fluorescence upon protease catalyzed cleavage. FLIPR plate readers (Molecular Devices Inc.) were used to monitor reactions and extract initial rates which were then fit (four parameter logistic function) to obtain IC50 values. All enzymes are human. All enzymes and reagents were obtained commercially and are summarized in Tables 1 and 2 below along with assay conditions.

Human Cathepsin K = target: T5, Human Cathepsin K (Homo sapiens, UniProt P43235); assay: Cathepsin continuous fluorescence inhibition assay; conditions: Column E; enzyme 10 nM, substrate 1 uM, pH 5.5, 30 minutes pre-incubation with inhibitor
T5 construct: purchased
T5 sequence (P43235 115-329): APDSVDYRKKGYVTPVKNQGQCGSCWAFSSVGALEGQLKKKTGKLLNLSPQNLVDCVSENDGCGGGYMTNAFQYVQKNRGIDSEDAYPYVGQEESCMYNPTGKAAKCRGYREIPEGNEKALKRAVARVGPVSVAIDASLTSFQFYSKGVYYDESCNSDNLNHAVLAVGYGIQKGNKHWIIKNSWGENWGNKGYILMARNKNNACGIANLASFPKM
Method: as §3

Human Cathepsin S = target: T6, Human Cathepsin S (Homo sapiens, UniProt P25774); assay: Cathepsin continuous fluorescence inhibition assay; conditions: Column F; enzyme 6 nM, substrate 1 uM, pH 4.5, 30 minutes pre-incubation with inhibitor
T6 construct: purchased
Method: as §3

Human Cathepsin B = target: T7, Human Cathepsin B (Homo sapiens, UniProt P07858); assay: Cathepsin continuous fluorescence inhibition assay; conditions: Column D; enzyme 25 nM, substrate 1 uM, pH 5.0, 30 minutes pre-incubation with inhibitor
T7 construct: purchased
Method: as §3

T6 sequence (P25774 115-331): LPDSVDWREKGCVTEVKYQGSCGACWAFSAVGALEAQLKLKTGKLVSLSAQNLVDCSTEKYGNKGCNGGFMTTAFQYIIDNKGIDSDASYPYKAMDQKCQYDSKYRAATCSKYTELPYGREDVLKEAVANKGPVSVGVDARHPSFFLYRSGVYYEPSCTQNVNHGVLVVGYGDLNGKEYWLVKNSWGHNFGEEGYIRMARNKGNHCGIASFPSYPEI
T4 sequence (P07711 114-333): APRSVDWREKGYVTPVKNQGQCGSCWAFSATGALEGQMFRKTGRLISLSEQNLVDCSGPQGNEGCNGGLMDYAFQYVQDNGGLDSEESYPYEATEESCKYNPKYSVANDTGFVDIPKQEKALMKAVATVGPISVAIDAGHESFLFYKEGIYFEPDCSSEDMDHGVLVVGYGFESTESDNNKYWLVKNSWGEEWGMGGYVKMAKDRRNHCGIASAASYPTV

Structure (SMILES) | IC50 (Human Calpain 2/NS1) [µM] | IC50 (Human Calpain 1/NS1) [µM] | IC50 (Human Calpain 9/NS1) [µM] | IC50 (Human Cathepsin L) [µM] | IC50 (Human Cathepsin K) [µM] | IC50 (Human Cathepsin S) [µM] | IC50 (Human Cathepsin B) [µM]
CC(C)[C@@H]1NC(=O)/C=C/[C@@H](NC(=O)OC(C)(C)C)COC(=O)[C@H](C)NC1=O [Compound 15, tert-butyl ((3S,6S,11R,E)-6-isopropyl-3-methyl-2,5,8-trioxo-1-oxa-4,7-diazacyclododec-9-en-11-yl)carbamate] | > 10 | > 10 | > 10 | < 3 | < 3 | < 3 | 3 to 10
CC(C)C[C@H](NC(=O)OC(C)(C)C)C(=O)N[C@@H]1/C=C/C(=O)N[C@@H](C(C)C)C(=O)N[C@@H](Cc2ccc(O)cc2)C(=O)OC1 [Compound 12, tert-butyl ((S)-1-(((3S,6S,11R,E)-3-(4-hydroxybenzyl)-6-isopropyl-2,5,8-trioxo-1-oxa-4,7-diazacyclododec-9-en-11-yl)amino)-4-methyl-1-oxopentan-2-yl)carbamate] | < 3 | < 3 | > 10 | < 3 | < 3 | < 3 | < 3
CC(C)[C@@H]1NC(=O)/C=C/[C@@H](NC(=O)[C@@H](NC(=O)CNC(=O)OC(C)(C)C)C(C)C)COC(=O)[C@H](Cc2ccc(O)cc2)NC1=O [Compound 7, tert-butyl (2-(((s)-1-(((3S,6S,11R,E)-3-(4-hydroxybenzyl)-6-isopropyl-2,5,8-trioxo-1-oxa-4,7-diazacyclododec-9-en-11-yl)amino)-3-methyl-1-oxobutan-2-yl)amino)-2-oxoethyl)carbamate] | 3 to 10 | 3 to 10 | > 10 | < 3 | < 3 | < 3 | < 3
CC(C)[C@@H]1NC(=O)/C=C/[C@@H](NC(=O)[C@@H](NC(=O)OC(C)(C)C)C(C)C)COC(=O)[C@H](Cc2ccc(O)cc2)NC1=O [Compound 2, Tert-butyl ((S)-1-(((3S,6S,11R,E)-3-(4-hydroxybenzyl)-6-isopropyl-2,5,8-trioxo-1-oxa-4,7-diazacyclododec-9-en-11-yl)amino)-3-methyl-1-oxobutan-2-yl)carbamate] | < 3 | 3 to 10 | > 10 | < 3 | < 3 | < 3 | < 3

Now from value to molecule:

IC50 (Human Calpain 2/NS1) [µM] | IC50 (Human Calpain 1/NS1) [µM] | IC50 (Human Calpain 9/NS1) [µM] | IC50 (Human Cathepsin L) [µM] | IC50 (Human Cathepsin K) [µM] | IC50 (Human Cathepsin S) [µM] | IC50 (Human Cathepsin B) [µM] | Structure (SMILES)
< 3 | < 3 | > 10 | < 3 | < 3 | < 3 | < 3 | CC(C)[C@@H]1NC(=O)/C=C/[C@@H](NC(=O)[C@@H](NC(=O)[C@H](Cc2ccc(O)cc2)NC(=O)OC(C)(C)C)C(C)C)COC(=O)[C@H](Cc2ccc(O)cc2)NC1=O [Compound 3, Tert-butyl ((S)-1-(((S)-1-(((3S,6S,11R,E)-3-(4-Hydroxybenzyl)-6-isopropyl-2,5,8-trioxo-1-oxa-4,7-diazacyclododec-9-en-11-yl)amino)-3-methyl-1-oxobutan-2-yl)amino)-3-(4-hydroxyphenyl)-1-oxopropan-2-yl)carbamate]
< 3 | < 3 | > 10 | < 3 | < 3 | < 3 | < 3 | CCCCCC/C=C\CC(=O)N[C@@H](Cc1ccc(O)cc1)C(=O)N[C@H](C(=O)N[C@@H]1/C=C/C(=O)N[C@@H](C(C)C)C(=O)N[C@@H](Cc2ccc(OC)cc2)C(=O)OC1)C(C)C [Compound 11, (Z)—N—((S)-3-(4-hydroxyphenyl)-1-(((S)-1-(((3S,6S,11R,E)-6-isopropyl-3-(4-methoxybenzyl)-2,5,8-trioxo-1-oxa-4,7-diazacyclododec-9-en-11-yl)amino)-3-methyl-1-oxobutan-2-yl)amino)-1-oxopropan-2-yl)dec-3-enamide]
< 3 | < 3 | > 10 | < 3 | < 3 | < 3 | < 3 | CC(C)[C@@H]1NC(=O)/C=C/[C@@H](NC(=O)[C@@H](NC(=O)[C@H](Cc2ccccc2)NC(=O)OC(C)(C)C)C(C)C)COC(=O)[C@H](Cc2ccc(O)cc2)NC1=O [Compound 6]
